Test results published in US20250049773A1, “INHIBITION OF STEROL RESPONSE ELEMENT BINDING PROTEINS AS ATARGET FOR SELECTIVE ELIMINATION OF SENESCENT CELLS” (Trustees of Tufts College, priority 2021, published 2025).

How the values were obtained:
IMR-90 fibroblasts = test: Selective killing of senescent versus quiescent IMR-90 fibroblasts by SRE-BP activation inhibitors; type: cell-based; conditions: 30 μM
Method: FIGS. 1A and 1B. SRE-BP activation inhibitors selectively kill senescent cells. IMR-90 fibroblasts were induced to senesce with either 10 Gy of ionizing radiation (IR), 250 nM doxorubicin [SEN(DOXO)], or quiescent vehicle control (QUI) for 24 hours. Media was then replaced with drug-free growth media, and senescence was allowed to develop for 12 days. On day 12, growth media (10% serum) was replaced with quiescence media (0.2% serum+ITS supplement) for 48 hours to induce quiescence in non-senescent cells. On day 14, media was replaced with quiescence media containing increasing doses of fatostatin (A), xanthohumol (B), PF-429242 (C), or 30 micromolar betulin (D). DMSO served as a 0 micromolar vehicle control. \<0.001

[1] = system: senescent cells in the liver; test: Markers of senescence and SASP factors in liver of high fat diet mice by qRT-PCR; type: in vivo
Method: FIGS. 2A, 2B, 2C, and 2D. […] Mice were fed a high fat diet (HFD) or high fat diet with 60 mg/kg xanthohumol (HFD+XN) for 12 weeks. RNA was extracted from mice and analyzed by quantitative PCR for (A) p21^WAF1, (B) p16^INK4a, (C) p15^INK4b, and (D) SASP factors.
Prolonged high fat diet (HFD) induces the generation of senescent cells in the liver. To test the hypothesis that inhibitors of SRE-BP activation are senolytic, two groups of mice were fed a HFD for 12 weeks. A control group was fed a HFD alone (FIG. 2, HFD), and an experimental group (FIG. 2, HFD+XN) was fed a HFD and the SRE-BP activation inhibitor xanthohumol (XN). RNA was isolated from liver samples from each group and subjected to quantitative reverse transcriptase polymerase chain reaction (qRT-PCR). […] Accordingly, the data presented in FIG. 2D supports the hypothesis that SRE-BP activation inhibitors, e.g., xanthohumol, are senolytic.

[2] = SASP factor, mice, HFD + 60 mg/kg xanthohumol for 12 weeks vs HFD alone, liver RNA, qRT-PCR
[3] = mice, HFD + 60 mg/kg xanthohumol for 12 weeks vs HFD alone, liver RNA, qRT-PCR

| SMILES | toxicity to senescent cells versus quiescent cells (IMR-90 fibroblasts) | expression of 2′, 5′ oligoadenylate synthetase 2 (Oas2) [1, 2] | expression of C-C motif chemokine 2 (Ccl2) [1, 2] | expression of arachidonate 5-lipoxygenase (Alox5) [1, 2] | expression of growth differentiation factor 15 (Gdf15) [1, 2] | expression of interleukin 6 (IL-6) [1, 2] | expression of matrix metalloproteinase 3 (MMP3) [1, 2] | expression of plasminogen activator, urokinase (Plau) [1, 2] | expression of prostaglandin-endoperoxide synthase 2 (Ptgs2) [1, 2] | expression of serpin family E member 1 (Serpine1), encoding plasminogen activator inhibitor 1 (PAI-1) [1, 2] | expression of marker of senescence p15^INK4b [1, 3] | expression of marker of senescence p16^INK4a [1, 3] | expression of marker of senescence p21^WAF1 [1, 3] | several genes characteristic of SASP in mouse livers ([1]; summary statement, after administration of xanthohumol, qRT-PCR) | markers of senescence in vivo ([1]; summary statement, mice, HFD + 60 mg/kg xanthohumol for 12 weeks vs HFD) |
| --- | --- | --- | --- | --- | --- | --- | --- | --- | --- | --- | --- | --- | --- | --- | --- |
| C=C(C)[C@@H]1CC[C@]2(CO)CC[C@]3(C)[C@H](CC[C@@H]4[C@@]5(C)CC[C@H](O)C(C)(C)[C@@H]5CC[C@]43C)[C@@H]12 [betulin] | significantly more toxic to senescent cells than quiescent cells | – | – | – | – | – | – | – | – | – | – | – | – | – | – |
| COc1cc(O)c(CC=C(C)C)c(O)c1C(=O)/C=C/c1ccc(O)cc1 [xanthohumol] | – | reduced expression | reduced expression | reduced expression | reduced expression | reduced expression | reduced expression | reduced expression | reduced expression | reduced expression | reduced expression | reduced expression | reduced expression | reduced | lowers markers of senescence |
